Measurements: PMC11314731 (Polymers, 2024)
Where two headings read alike, the source gives them in different places.

How the values were obtained:
Caco-2 cells = test: In vitro cellular uptake of Rh123 in Caco-2 cells; conditions: Rh123 20 µM, 5 h incubation, 37 °C; TPGS 33 µM, CyA 4 µM
Mdr1a P-gp = system: Mdr1a P-gp; parameters: method as in PMID 9050899; conditions: cited from earlier work
[1] = cited from earlier work

| Structure (SMILES) | fluorescence intensity (cellular uptake of Rh123) (Caco-2 cells) | increase in plasma AUC of PTX, Mdr1a knockout vs wild-type mice (Mdr1a P-gp; IV administration) | increase in plasma AUC of PTX, Mdr1a knockout vs wild-type mice (Mdr1a P-gp; oral administration) | LogP [1] | pKa [1] |
| --- | --- | --- | --- | --- | --- |
| COC(=O)c1ccccc1-c1c2ccc(=N)cc-2oc2cc(N)ccc12 [free Rh123, rhodamine 123] | very low fluorescence intensity | – | – | – | – |
| CC(=O)O[C@H]1C(=O)[C@@]2(C)[C@H]([C@H](OC(=O)c3ccccc3)[C@]3(O)C[C@H](OC(=O)[C@H](O)[C@@H](NC(=O)c4ccccc4)c4ccccc4)C(C)=C1C3(C)C)[C@]1(OC(C)=O)CO[C@@H]1C[C@@H]2O [PTX, Paclitaxel] | – | twofold increase | more than sixfold increase | 3.66 | 10.36 |
